Earlier results as cited in article PMC12503259, “Establishment of an in vivo analytical method for detecting total anti-UFH activity and pharmacokinetic study in PS and R15 in rats” (PLOS One, 2025).

Key:
[1] = clinical practice; cited from earlier work
Excerpt: In clinical practice, PS is typically administered at 1.2 times the anti-heparin activity of circulating UFH to achieve complete neutralization [40, 41].

[2] = UFH 300 U·kg^-1 in rats, preliminary experimental data; cited from earlier work
Excerpt: A dose of 300 U· kg^-1 dose of UFH is considered clinically effective. […] Accordingly, we performed pharmacokinetic studies of PS at 300 U kg^-1, and of R15 at 300, 900, and 2700 U· kg^-1 to determine whether R15 follows linear or nonlinear pharmacokinetics.

## Unfractionated heparin [UFH]
[1]
  T1/2: 1 to 2 h
[2]
  duration of heparinization: at least 4 hours
